Data from ChEMBL document CHEMBL5620406, “Synthesis and biological evaluation of novel pyrazole amides as potent mitochondrial complex I inhibitors” (Eur J Med Chem, 2023).

Columns and labels:
KG-1 = experiment: Antitumor activity against human KG-1 cells xenografted in NOD-SCID mouse assessed as tumor growth inhibition at 5 mg/kg, ip qd administered 5 consecutive days per week for 24 days; type: functional; conditions: KG-1, 576 h, time 24 day, read-out: TGI
[1] = Toxicity in NOD-SCID mouse xenografted with human KG-1 cells assessed as effect on lung damage at 5 mg/kg, ip qd administered 5 consecutive days per week for 24 days by H and E staining based analysis; type: organism-based; conditions: in vivo, 576 h, time 24 day
[2] = Toxicity in NOD-SCID mouse xenografted with human KG-1 cells assessed as effect on hematocrit level at 5 mg/kg, ip qd administered 5 consecutive days per week for 24 days; type: organism-based; conditions: in vivo, 576 h, time 24 day
[3] = Acute toxicity in BALB/c mouse assessed as decrease in behavioral activity at 40 mg/kg, ip measured for 24 hrs; type: organism-based; conditions: in vivo
[4] = Toxicity in NOD-SCID mouse xenografted with human KG-1 cells assessed as effect on spleen damage at 5 mg/kg, ip qd administered 5 consecutive days per week for 24 days by H and E staining based analysis; type: organism-based; conditions: in vivo, 576 h, time 24 day
[5] = Toxicity in NOD-SCID mouse xenografted with human KG-1 cells assessed as effect on HDL level at 5 mg/kg, ip qd administered 5 consecutive days per week for 24 days; type: organism-based; conditions: in vivo, 576 h, time 24 day
[6] = Toxicity in NOD-SCID mouse xenografted with human KG-1 cells assessed as effect on AST level at 5 mg/kg, ip qd administered 5 consecutive days per week for 24 days; type: organism-based; conditions: in vivo, 576 h, time 24 day

Structure (SMILES) | inhibition in vivo at 5 mg/kg (KG-1) [%] | Activity [1] | Activity [2] | Activity [3] | Activity [4] | Activity [5] | Activity [6]
Cc1cc(C(=O)Nc2ccc(C(F)(F)F)cc2)nn1Cc1cccc(N2CCN(C(=O)C3CC3)CC2)c1 | 65.9 | Non-Toxic | Non-Toxic | Non-Toxic | Non-Toxic | Non-Toxic | Non-Toxic
Cc1cc(C(=O)Nc2ccc(OC(F)(F)F)cc2)nn1Cc1cccc(N2CCN(C(=O)C3CC3)CC2)c1 | 61.5 | Non-Toxic | Non-Toxic | Non-Toxic | Non-Toxic | Non-Toxic | Non-Toxic
